Measured values as given in US20070203060A1, “Casein Derived Peptides And Therapeutic Uses Thereof” (priority 2004, published 2007).
“Also recorded” adds a separate entry of the source.

Tests used:
[1] = tested on: murine primary bone marrow cells (CFU-GEMM); assay: Multipotential colonies (CFU-GEMM) from murine bone marrow cells, colony and differential counts; assay type: cell-based, mouse; conditions: for Early (E.MK) megakaryocyte formation (in words): 25 μg or more, 14 days; for Early (E.MK) megakaryocyte formation (in words) / increase in total megakaryocyte proliferation over controls: FIG. 21; for increase in total megakaryocyte proliferation over controls: differential count; for megakaryocyte formation and development (in words): 8 days treatment
Experimental: Proliferation of megakaryocytes in multipotential colonies (CFU-GEMM) from murine Bone Marrow cells: Primary bone marrow cells (1×10^5 per ml) from 8-12 week-old C3H/HeJ mice were grown in serum-free methyl cellulose-IMDM medium for 8-9 days at 5% CO2, 95% air, at 37° C. The medium, appropriate for the growth of multipotential colonies (CFU-GEMM), contained 1% BSA (Sigma), 10^−4 M thioglycerol (Sigma), 2.8×10^−4 M human transferrin (TF, Biological industries, Israel), 10% WEHI-CM as a source of IL-3 and 2 units per ml erythropoietin (rhEPO, R & D Systems, Minneapolis). […] They were picked with a micropipette, cytocentrifuged and stained with May-Grunwald-Giemsa for differential counts. At least 700 cells were counted for each preparation. […]

[2] = tested on: platelets of myeloablated, bone marrow transplanted mice; assay: Platelet reconstitution in irradiated bone marrow transplant recipient mice; assay type: in vivo, mouse; conditions: for enhancement of platelet counts compared to control mice: F1 mice, 750 cGy, 1 mg i.v., 10 days post-transplantation; for increase in platelet counts over untreated controls / platelet count: 800 cGy, 4 daily i.p. injections; for increase in platelet counts over untreated controls: 100 μg per mouse
Experimental: Leukocyte and platelet reconstitution in bone marrow transplant recipient mice: BALB/c mice were sub-lethally irradiated at a source to skin distance of 70 cm, dosage of 50 cGy per minute, for a total of 600 cGy. The irradiated mice were reconstituted with syngeneic bone marrow as described above and injected intravenously 24 hours later with 1 mg per animal peptides derived from natural casein, synthetic peptides derived from casein (13-26 amino acids, see Table 3 above), or human serum albumin (controls), following a double-blinded protocol. Leukocyte reconstitution was determined according to cell count in peripheral blood collected at indicated intervals from 6 to 12 days post treatment. Platelet reconstitution was determined by cell count in blood collected from the retro orbital plexus, into EDTA-containing vials, at indicated intervals from day 6 to day 15 post treatment.
In an additional series of experiments, CBA mice were lethally irradiated (900 cGy), reconstituted with BM cells and treated with peptides derived from natural casein or human serum albumin as described above. Platelet reconstitution was assayed as mentioned above.
[…] Platelet reconstitution was assayed at 10 and 12 days post-transplantation.

[3] = tested on: human Peripheral Blood Stem Cells / K562 target cells; assay: NK activity of cultured human PBSC (35S release from K562 target cells); assay type: cell-based
Experimental: From human Peripheral Blood Stem Cells (PBSC): PBSC of G-CSF treated subjects were separated on a FICOLL gradient, washed twice with RPMI-1640 medium containing 10% FCS and glutamine, and seeded into 1.5 ml wells with or without peptides derived from natural casein or synthetic peptides derived from casein, as indicated, (0-500 μg per ml). Following two days incubation the cells were assayed for Natural Killer activity by measuring radioactivity released from ^35S-labeled K562 target cells (NEG-709A, 185.00 MBq, 2.00 mCi EASYTAGth Methionine, L-[^35S] 43.48 TBq per mmol, 1175.0 Ci per mmol, 0.488 ml, Boston USA). Two concentrations of effector cells (2.5×10^5 and 5×10^5 cells per well) were incubated with 5×10^3 target cells per well (effector:target cell ratios of 50:1 and 100:1, respectively) in U-bottomed 96 well tissue culture plates. The cells were incubated for 5 hours at 37° C. in 5% CO2, 95% air and precipitated by 5 minutes centrifugation at 1000 rpm. ^35S release was measured in 50 μl samples of the supernatant liquid.

[4] = tested on: HIV-1 infection of CEM cells; assay: Inhibition of in vitro HIV-1 infection of CEM lymphocytes (cell counts, P24 antigen assay); assay type: cell-based
Experimental: Peptides: Peptides (either peptides derived from natural casein or synthetic peptides derived from casein (2-26 amino acids in length, see table 3) supplied as lyophilized powder were resuspended in RPMI complete medium and added to cell cultures at a final concentrations of 50 to 1000 μg per ml.
Cells: Several types of freshly isolated human cells (primary cells) and cell lines are known to be susceptible to in vitro HIV-1 infection, although essentially any cell displaying even low surface levels of the CD4molecule can be considered a potential target for HIV-1 infection. Two commonly used human cell lines which are highly sensitive for HIV-1 infection were chosen, CEM and Sup-T1.
CEM is a human T4-lymphoblastoid cell line initially derived by G. E. Foley et al. [(1965), Cancer 18:522] from peripheral blood buffy coat of a person with acute lymphoblastic leukemia. These cells were continuously maintained in suspension in medium, and have been used widely for analysis of infectivity, antiviral agents and neutralizing antibodies.
Virus: The HIV virus strain employed was HIV-1IIIB, originally designated HTLV-IIIB. Concentrated culture fluids of peripheral blood from several patients with AIDS or related diseases were used to establish a permanent productive infection in H-9 cells. This subtype B virus has high capacity to replicate in human T-cell lines. Viral titer was 5.38 ng per ml in stock solution.
HIV-1 P^24 antigen capture assay: An HIV-1 P^24 Antigen capture assay kit employed was designed to quantitate the HIV-1 P^24 core antigen, which is proportionally related to the degree of viral production in cells. This kit was purchased from the AIDS Vaccine program of the SAIC-NCI-Frederick Cancer Research Institute, P.O. Box B, Frederick, Md. 21702, USA and included 96 well plates coated with monoclonal antibody to HIV-1 P^24, primary antibody-rabbit anti-HIV P^24 serum, secondary antibody-Goat anti-rabbit-IgG (H+ L) peroxidase conjugated antibody, TMB peroxidase substrate system and lysed HIV-1 P^24 standard. The HIV-1 P^24 antigen capture assay was analyzed by Organon-Technica ELISA reader at 450 nm with a reference at 650 nm.
HIV-1 P^24 antigen capture ELISA: HIV infection was measured with an indirect enzyme immunoassay which detects HIV-1 P^24 core antigens in tissue culture media. Tissue culture supernatant was reacted with primary rabbit anti-HIV-1 P^24 antigen and visualized by peroxidase conjugated goat anti rabbit IgG. The reaction was terminated by adding 4N H2SO4, wherein the intensity of the color developed is proportional to the amount of HIV-1 antigen present in the tissue culture supernatant.
HIV infection of human cultured CD4 cells: For longer incubations, the cells (CEM, Sup-T1) were preincubated with several increasing concentrations of peptides derived from natural casein (50-1000 μg per ml) or synthetic peptides derived from casein (10-500 μg per ml) for 24 (for synthetic and natural peptides) and 48 (only for natural peptides) hours and HIV-1IIIB (45 pg per ml final concentration) was added to each well thereafter. For the shorter incubations (3 hours), HIV-1IIIB was preincubated with the peptides for 3 hours and then added to cells (5000 cells/well) in tissue culture plates. Controls were IF (Infected, cells cultured with HIV-1 and without peptides), UIF (Uninfected, cells cultured without HIV-1 and without peptides) and UIF+Ch (Uninfected+peptides derived from natural casein, cells cultured in the presence of peptides derived from natural casein {50-1000 μg per ml}) to test the effect of peptides derived from natural casein and synthetic peptides derived from casein on cell viability and growth. Cells were counted for viability and proliferation rate on day 7, 10 and day 14 post infection (the day of P^24 antigen culture supernatant harvest). Cells and tissue culture supernatants (media) were harvested and lysed immediately in 1/10 volume of 10% Triton X-100. […]

[5] = tested on: glucose metabolism in NOD mice; assay: Intraperitoneal Glucose Tolerance Test (IPGTT) in NOD mice; assay type: in vivo, mouse; conditions: healthy NOD mice after 25 weeks
Experimental: Intraperitoneal Glucose Tolerance Test (IPGTT): The glucose tolerance test is the definitive method for investigating glucose metabolism and diabetic tendencies in mammals. Twenty five (25) weeks after receiving Synthetic peptides derived from casein, response to a glucose load was assessed with an intraperitoneal glucose tolerance test. Glucose injection consisted of 1 g/kg body weight. Glycemic values were determined from blood drawn prior to test (0 minutes) and 60 minutes after loading.

[6] = tested on: peripheral white blood cells of myeloablated, bone marrow transplanted mice; assay: Leukocyte reconstitution in irradiated bone marrow transplant recipient mice; assay type: in vivo, mouse; conditions: for peripheral white blood cell count: BALB/c, 600 cGy, 1 mg per mouse i.p.; for early leukocyte reconstitution (in words): F1 mice, 750 cGy, 1 mg i.v., 5 and 7 days post-transplantation
[7] = tested on: human bone marrow progenitor cells (CFU-GM); assay: CFU-GM colonies from human bone marrow progenitor cells with IL-3 and G-CSF; assay type: cell-based; conditions: 300 μg/ml, G-CSF and IL-3, 14 days
Experimental: Cells were scored in the macroscopic colonies grown from human bone marrow cells prepared similarly to the CFU-GEMM colonies previously described. Cells were incubated with hematopoietic factors cytokine (IL-3) and colony stimulating factor (G-CSF), and 25 μg or more of synthetic peptides derived from casein: peptide J, representing amino acids 1-22 of α-S1 casein (SEQ ID NO. 21), or β-casein, representing amino acids 193-208 of β-casein (SEQ ID No. 28). Exposure of the human bone marrow progenitor cells to peptides derived from casein was for 14 days. Stimulation of colony formation (CFU) is expressed as the number of myeloid per colonies in 10^5 plated MNCs. Note the synergistic increase (>50% with 100 μg/ml of peptide J, and >30% with 300 μg/ml of synthetic β-casein) in myelocyte formation in cultures exposed to G-CSF, IL-3 and the synthetic peptides derived from β-casein and an N terminal portion of α-S1 casein.
A similar effect of synthetic peptides derived from α-, β- or κ-casein was observed on the proliferation of granulocytes and macrophages from human bone marrow progenitor cells. […] (FIG. 20). Thus, synthetic peptides derived from αS1-, αS2-, β- or κ-casein or combinations thereof are effective in augmenting the effect of granulopoietic factors such as G-CSF on bone marrow hematopoietic progenitor cell differentiation and expansion.

Substance: MAIPPKKNQDKTEIPTINTIAS [κ 106-127]
- Early (E.MK) megakaryocyte formation (in words) [1]: dramatic effect
- increase in total megakaryocyte proliferation over controls [1]: 21%
- enhancement of platelet counts compared to control mice ([2]; listed as SEQ ID NO: 30): 26%

Substance: RPK [1P]
- patients responding (of the 5 tested) ([3]; 25 μg/ml peptide): 3
- patients responding (of the 5 tested) ([3]; 100 μg/ml peptide): 1
- patients responding (of the 5 tested) ([3]; 250 μg/ml peptide): 1
- target cell lysis, fold that of untreated controls ([3]; PBS cells from donors with hematopoietic disease): ≥ 2 fold
- HIV-P24 antigen ([4]; 100 μg/ml, 7 days post infection, untreated control 0.52): 0.17 ng P^24 Antigen/ml
- HIV-P24 antigen ([4]; 500 μg/ml, 7 days post infection, untreated control 0.52): 0.14 ng P^24 Antigen/ml

Substance: RPKHP [3P]
- megakaryocyte formation and development (in words) [1]: significant increase
- HIV-P24 antigen ([4]; virus pre-treated 3 hours, 10 μg per ml, 7 days post infection, control 0.52): 0.26 ng P^24 Ag per ml
- HIV-P24 antigen ([4]; virus pre-treated 3 hours, 25 μg per ml, 7 days post infection, control 0.52): 0.18 ng P^24 Ag per ml

Substance: RPKHPI [4P]
- megakaryocyte formation and development (in words) [1]: significant increase
- increase in platelet counts over untreated controls ([2]; 12 days post transplantation): 29%
- platelet count ([2]; 12 days post transplantation): 872000 mL⁻¹
- HIV-P24 antigen (in words) ([4]; virus pre-incubated 3 hours, 7 days post infection): dose dependent reduction
- cell counts ([4]; virus pre-treated 3 hours, 250 μg per ml, infected control 1.06×10^6): 1.59×10^6

Substance: RPKHPIKHQ [X]
- glucose tolerance (IPGT) test result in words [5]: no evidence of abnormal glucose metabolism

Substance: RPKHPIKHQGL [2a]
- megakaryocyte formation and development (in words) [1]: significant increase

Substance: RPKHPIKHQGLP [3a]
- megakaryocyte formation and development (in words) [1]: significant increase
- increase in platelet counts over untreated controls ([2]; 10 days post transplantation): up to 35.5%
- increase in platelet counts over untreated controls ([2]; 12 days post transplantation): up to 13.5%
- platelet count ([2]; 10 days post transplantation): 229000 mL⁻¹
- platelet count ([2]; 12 days post transplantation): 622000 mL⁻¹

Substance: RPKHPIKHQGLPQEVLN
- megakaryocyte formation and development (in words) [1]: significant increase

Substance: RPKHPIKHQGLPQEVLNE [F]
- megakaryocyte formation and development (in words) [1]: significant increase

Substance: RPKHPIKHQGLPQEVLNENL
- megakaryocyte formation and development (in words) [1]: significant increase

Substance: RPKHPIKHQGLPQEVLNENLL
- megakaryocyte formation and development (in words) [1]: significant increase

Substance: RPKHPIKHQGLPQEVLNENLLR [J]
- Early (E.MK) megakaryocyte formation (in words) [1]: dramatic effect
- peripheral white blood cell count ([6]; day 10): 2.74 ×10^6 cells per ml
- peripheral white blood cell count ([6]; day 12): 5.20 ×10^6 cells per ml
- early leukocyte reconstitution (in words) ([6]; listed as SEQ ID NO: 21): dramatic enhancement; also recorded: strong stimulation

Substance: RPKHPIKHQGLPQEVLNENLLRFF
- megakaryocyte formation and development (in words) [1]: significant increase

Substance: YQEPVLGPVRGPFPII [β 193-208]
- Early (E.MK) megakaryocyte formation (in words) [1]: dramatic effect
- increase in total megakaryocyte proliferation over controls [1]: 32%
- enhancement of granulopoietic stimulating effect of G-CSF (myelocyte formation) ([7]; listed as SEQ ID NO: 28): 30%
- enhancement of granulopoietic stimulating effect of G-CSF (myelocyte formation) ([7]; listed as synthetic β-casein): > 30%
- early leukocyte reconstitution (in words) ([6]; listed as SEQ ID NO: 28): dramatic enhancement; also recorded: strong stimulation
- enhancement of platelet counts compared to control mice ([2]; listed as SEQ ID NO: 28): 32%
